According to ChEMBL document CHEMBL2163249, “Exploration of natural compounds as sources of new bifunctional scaffolds targeting cholinesterases and beta amyloid aggregation: the case of chelerythrine” (Bioorg Med Chem, 2012):

Legend:
[1] = biological target: Acetylcholinesterase (Electrophorus electricus) (UniProt O42275); conditions: at 2 mg/mL
Description: Inhibition of electric eel AChE at 2 mg/ml by Ellman's method

[2] = biological target: Cholinesterase (Equus caballus) (UniProt P81908); conditions: at 2 mg/mL
Sequence of Cholinesterase (Equus caballus) (P81908 whole entry): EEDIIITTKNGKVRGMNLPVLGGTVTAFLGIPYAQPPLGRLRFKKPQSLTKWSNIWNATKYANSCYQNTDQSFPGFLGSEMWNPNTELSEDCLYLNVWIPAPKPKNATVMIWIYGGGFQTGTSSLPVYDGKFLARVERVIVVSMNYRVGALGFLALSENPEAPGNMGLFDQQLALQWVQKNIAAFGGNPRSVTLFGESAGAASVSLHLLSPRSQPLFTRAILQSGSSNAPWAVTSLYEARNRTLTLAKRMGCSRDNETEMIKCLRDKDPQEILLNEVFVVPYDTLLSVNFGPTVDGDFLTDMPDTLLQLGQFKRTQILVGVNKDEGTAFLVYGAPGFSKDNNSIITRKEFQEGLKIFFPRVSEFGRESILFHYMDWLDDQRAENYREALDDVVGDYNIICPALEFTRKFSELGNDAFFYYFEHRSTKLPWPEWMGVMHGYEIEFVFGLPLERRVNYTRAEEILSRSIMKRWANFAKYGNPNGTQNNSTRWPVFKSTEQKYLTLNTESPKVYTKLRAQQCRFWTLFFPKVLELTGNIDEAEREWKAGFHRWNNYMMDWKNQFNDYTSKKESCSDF
Description: Inhibition of horse BChE at 2 mg/ml by Ellman's method

O=[N+]([O-])c1ncc[nH]1
inhibition [1]: 4.77%
inhibition [2]: 14.4%

C[C@H]1[C@H](C)CC[C@]2(C(=O)O)CC[C@]3(C)C(=CC[C@@H]4[C@@]5(C)CC[C@H](O)C(C)(C)[C@@H]5CC[C@]43C)[C@H]12
inhibition [1]: 16.8%
inhibition [2]: 5.32%

O=c1c(-c2ccc(O)cc2)coc2cc(O)cc(O)c12
inhibition [1]: 7.3%
inhibition [2]: 10.5%

O=C(O)Cc1c[nH]c2ccccc12
inhibition [1]: 2.98%
inhibition [2]: -7.42%

COc1cc(C(=O)O[C@H]2C/C(C)=C/CC/C(C)=C/[C@H](O)[C@@H]2C(C)C)ccc1O
inhibition [1]: 23.6%
inhibition [2]: 3.49%

CN[C@@H]1[C@H](O)[C@H](NC)[C@H]2O[C@@]3(O)C(=O)C[C@@H](C)O[C@H]3O[C@@H]2[C@H]1O
inhibition [1]: 15%
inhibition [2]: -9.67%

CN1[C@@H]2CC[C@H]1C[C@H](O)C2
inhibition [1]: 1.27%
inhibition [2]: -9.24%

CN1C(=O)CC[C@H]1c1cccnc1
inhibition [1]: 28.6%
inhibition [2]: -0.23%

CO[C@H]1C[C@H](O[C@H]2[C@H](C)[C@@H](O[C@@H]3O[C@H](C)C[C@H](N(C)C)[C@H]3OC(C)=O)[C@@H](C)C[C@@]3(CO3)C(=O)[C@H](C)[C@@H](OC(C)=O)[C@@H](C)[C@@H](C)OC(=O)[C@@H]2C)O[C@@H](C)[C@@H]1OC(C)=O
inhibition [1]: 14.8%
inhibition [2]: -1.09%

COc1cccc2c1C(=O)c1c(O)c3c(c(O)c1C2=O)C[C@@](O)(C(C)=O)C[C@@H]3O[C@H]1C[C@H](N)[C@H](O)[C@H](C)O1
inhibition [1]: 18.1%
inhibition [2]: -0.13%

CCN1C[C@]2(OC(=O)c3ccccc3NC(C)=O)CC[C@H](OC)[C@@]34[C@@H]2C[C@@H]([C@@H]13)[C@@]1(O)C[C@H](OC)[C@H]2C[C@@H]4[C@]1(O)[C@H]2OC
inhibition [1]: 1.48%
inhibition [2]: -7.41%

CN1Cc2c(ccc3c2OCO3)[C@@H]2[C@H]1c1cc3c(cc1C[C@@H]2O)OCO3
inhibition [1]: 29.8%
inhibition [2]: 6.72%

CC(C)[C@@H]1NC(=O)[C@H](C)OC(=O)[C@@H](C(C)C)NC(=O)[C@@H](C(C)C)OC(=O)[C@H](C(C)C)NC(=O)[C@H](C)OC(=O)[C@@H](C(C)C)NC(=O)[C@@H](C(C)C)OC(=O)[C@H](C(C)C)NC(=O)[C@H](C)OC(=O)[C@@H](C(C)C)NC(=O)[C@@H](C(C)C)OC1=O
inhibition [1]: 16.6%
inhibition [2]: -1.5%

COc1ccc2c(c1OC)C(=O)OC2C1c2c(cc3c(c2OC)OCO3)CCN1C (racemic)
inhibition [1]: -5.54%
inhibition [2]: 3.34%

C=CCc1ccc(O)c(-c2ccc(O)c(CC=C)c2)c1
inhibition [1]: -3.48%
inhibition [2]: 7.62%

O=C(CCc1ccc(O)cc1)c1c(O)cc(O)cc1O
inhibition [1]: -6.41%
inhibition [2]: 17%

CC1=CC(=O)c2ccccc2C1=O
inhibition [1]: 17.8%
inhibition [2]: -1.75%

CCN1C[C@]2(C)CC[C@H](O)[C@]34C1[C@@H](C[C@H]23)[C@@]1(O)C[C@H](OC)[C@H]2C[C@@H]4[C@@H]1[C@H]2O
inhibition [1]: 20%
inhibition [2]: -5.97%

CCN1C[C@]2(COC)CC[C@H](OC)[C@]34C1[C@H]([C@H](OC)[C@H]23)[C@@]1(OC(C)=O)C[C@H](OC)[C@@]2(O)C[C@@H]4[C@@H]1[C@H]2C(=O)c1ccc(OC)cc1
inhibition [1]: 3.52%
inhibition [2]: 9.36%

COC1=C(C(C)=O)C2=C(C)Cc3c(OC)c(=O)c(O)c4cc(OC)c5c(OC)cc(O)c6c(c2c3c4c56)C1=O
inhibition [1]: 4.6%
inhibition [2]: -0.88%

COc1cc2c(cc1OC)[C@@]13CC[N+]4([O-])CC5=CCO[C@H]6CC(=O)N2[C@H]1[C@H]6[C@H]5C[C@@H]34 (some centres undefined)
inhibition [1]: 12.8%
inhibition [2]: -6.05%

CCC12C=CCN3CC[C@@]4(c5ccc(OC)cc5N(C)[C@H]4[C@@](O)(C(=O)OC)[C@@H]1OC(C)=O)[C@@H]32 (some centres undefined)
inhibition [1]: 2.49%
inhibition [2]: -7.45%

C/C=C(/C)C(=O)O[C@H]1C(C)=C2[C@H]([C@@H]1OC(=O)CCCCCCC)[C@@](C)(OC(C)=O)C[C@H](OC(=O)CCC)[C@@]1(O)[C@H]2OC(=O)[C@@]1(C)O
inhibition [1]: 9.89%
inhibition [2]: 0.82%

O=c1oc2c(O)c(O)cc3c(=O)oc4c(O)c(O)cc1c4c23
inhibition [1]: -6.13%
inhibition [2]: 4.4%

COc1cc(C2Oc3cc([C@H]4Oc5cc(O)cc(O)c5C(=O)[C@@H]4O)ccc3OC2CO)ccc1O (some centres undefined)
inhibition [1]: 7.08%
inhibition [2]: -7.94%

C[C@@H]1O[C@@H](O[C@H]2[C@H](Oc3cc(O)c4c(c3)O[C@H](c3ccc(O)cc3)CC4=O)O[C@H](CO)[C@@H](O)[C@@H]2O)[C@H](O)[C@H](O)[C@H]1O
inhibition [1]: -3.38%
inhibition [2]: -5.49%

CC1=CC(=O)c2c(O)cccc2C1=O
inhibition [1]: 31.8%
inhibition [2]: 9.94%

O=C1C=C2C(=CCOC2O)O1 (centres undefined)
inhibition [1]: 5.33%
inhibition [2]: -1.78%

CN1CCc2cc(O)c(O)cc2C1Cc1ccc(O)c(O)c1 (centres undefined)
inhibition [1]: 28.1%
inhibition [2]: 24.1%

C[C@H]1C/C=C/[C@H]2[C@@H]3O[C@]3(C)[C@@H](C)[C@H]3[C@H](Cc4ccccc4)NC(=O)[C@]32OC(=O)O/C=C/[C@@](C)(O)C1=O
inhibition [1]: 5.91%
inhibition [2]: 9.25%

COc1ccc(C[C@H]2NC[C@H](O)[C@H]2OC(C)=O)cc1
inhibition [1]: -1.2%
inhibition [2]: -3.31%

COc1ccc(-c2oc3cc(O)cc(O)c3c(=O)c2O)cc1O
inhibition [1]: 25.9%
inhibition [2]: 3.18%

CCCCCCCCCCC[C@@H](C[C@@H]1OC(=O)[C@H]1CCCCCC)OC(=O)[C@H](CC(C)C)NC=O
inhibition [1]: -6.52%
inhibition [2]: 7.43%

C=C[C@H]1CN2CC[C@H]1C[C@@H]2[C@@H](O)c1ccnc2ccccc12
inhibition [1]: 5.94%
inhibition [2]: 9.07%

NC[C@H]1O[C@H](O[C@H]2[C@H](O)[C@@H](O[C@H]3O[C@H](CO)[C@@H](O)[C@H](N)[C@H]3O)[C@H](N)C[C@@H]2N)[C@H](O)[C@@H](O)[C@@H]1O
inhibition [1]: 17.6%
inhibition [2]: -5.91%

C=C1C(=O)[C@]23[C@H](O)[C@H]1CC[C@H]2[C@@]12CO[C@]3(O)[C@@H](O)[C@@H]1C(C)(C)CC[C@@H]2O
inhibition [1]: 24.7%
inhibition [2]: 0.03%

O=c1c(O)c(-c2ccc(O)c(O)c2)oc2cc(O)cc(O)c12
inhibition [1]: 18.1%
inhibition [2]: 6.73%

CC[C@]12CCCN3CCc4c(n(c5ccccc45)[C@@](O)(C(=O)OC)C1)[C@@H]32
inhibition [1]: 7.29%
inhibition [2]: 3.22%

COc1cccc2c1C(=O)c1c(O)c3c(c(O)c1C2=O)C[C@@](O)(C(=O)CO)C[C@@H]3O[C@H]1C[C@H](N)[C@H](O)[C@H](C)O1
inhibition [1]: 10.4%
inhibition [2]: 1.2%

CC(C)=CCCC1=CC(=O)c2c(O)ccc(O)c2C1=O
inhibition [1]: 1.52%
inhibition [2]: -2.66%

C[C@H]([C@H](O)CCC(C)(C)O)[C@H]1CC[C@@]2(O)C3=CC(=O)[C@@H]4C[C@@H](O)[C@@H](O)C[C@]4(C)[C@H]3CC[C@]12C
inhibition [1]: -0.57%
inhibition [2]: -1.9%

COc1ccc(-c2cc(=O)c3ccc(O)cc3o2)cc1
inhibition [1]: 30.6%
inhibition [2]: 6.46%

CO[C@H](C(=O)[C@@H](O)[C@@H](C)O)[C@@H]1Cc2cc3cc(O[C@H]4C[C@@H](O[C@H]5C[C@@H](O)[C@H](O)[C@@H](C)O5)[C@@H](O)[C@@H](C)O4)c(C)c(O)c3c(O)c2C(=O)[C@H]1O[C@H]1C[C@@H](O[C@H]2C[C@@H](O[C@H]3C[C@](C)(O)[C@H](O)[C@@H](C)O3)[C@H](O)[C@@H](C)O2)[C@H](O)[C@@H](O)O1
inhibition [1]: -3.51%
inhibition [2]: 6.61%

BLEOMYCIN
inhibition [1]: 10.2%
inhibition [2]: 10.8%

COC(=O)[C@H]1[C@H]2C[C@H]3c4[nH]c5cc(OC)ccc5c4CCN3C[C@H]2C[C@@H](OC(=O)c2cc(OC)c(OC)c(OC)c2)[C@@H]1OC
inhibition [1]: -2.45%
inhibition [2]: -8.07%

CC1(C)CCC2=C(O1)c1ccccc1C(=O)C2=O
inhibition [1]: -2.91%
inhibition [2]: 11.2%

C[C@@]1(CO)[C@H](O)CC[C@@]2(C)[C@H]1CC[C@H]1C[C@@H]3C[C@@]12CC[C@]3(O)CO
inhibition [1]: 8.45%
inhibition [2]: 13.5%

O=c1cc(-c2ccc(O)cc2)oc2c(O[C@@H]3O[C@H](CO)[C@@H](O)[C@H](O)[C@H]3O)c(O)c(O[C@@H]3O[C@H](CO)[C@@H](O)[C@H](O)[C@H]3O)c(O)c12
inhibition [1]: 22.2%
inhibition [2]: 1.92%

O=C1Cc2c([nH]c3ccc(Br)cc23)-c2ccccc2N1
inhibition [1]: -7.55%
inhibition [2]: -1%

COc1cc2c(cc1OC)[C@H](C)NCC2
inhibition [1]: -3.39%
inhibition [2]: -4.57%

CC[C@@]1(O)C(=O)OCc2c1cc1n(c2=O)Cc2cc3ccccc3nc2-1
inhibition [1]: 14.1%
inhibition [2]: 3.9%

c1cc2c(cc1[C@H]1OC[C@@H]3[C@H]1CO[C@H]3c1ccc3c(c1)OCO3)OCO2
inhibition [1]: 4.7%
inhibition [2]: -3.5%

O=c1cc(-c2ccccc2)oc2cc(O)cc(O)c12
inhibition [1]: 14.6%
inhibition [2]: 2.93%

COc1cc2c(c(OC)c1OC)-c1c(cc3c(c1OC)OCO3)C[C@H](C)[C@H](C)C2
inhibition [1]: -4.27%
inhibition [2]: 12.7%

C[C@@H]1C/C=C/C=C/C=C/C=C/[C@H](O[C@@H]2O[C@H](C)[C@@H](O)[C@H](N)[C@@H]2O)C[C@@H]2O[C@](O)(C[C@@H](O)C[C@H]3O[C@@H]3/C=C/C(=O)O1)C[C@H](O)[C@H]2C(=O)O
inhibition [1]: -4.37%
inhibition [2]: -8.59%

C[C@@H]1O[C@@H](O[C@@H]2[C@@H](O)[C@H](O)[C@@H](CO)O[C@H]2c2c(O)cc(O)c3c(=O)cc(-c4ccc(O)cc4)oc23)[C@H](O)[C@H](O)[C@H]1O
inhibition [1]: 25.9%
inhibition [2]: -3.3%

C[C@H]1C(=O)O[C@@H]2CCN3CC=C(COC(=O)[C@](C)(O)[C@]1(C)O)[C@H]23
inhibition [1]: 19.5%
inhibition [2]: 4.32%

CO[C@H]1/C=C/O[C@@]2(C)Oc3c(C)c(O)c4c(O)c(cc(O)c4c3C2=O)NC(=O)/C(C)=C\C=C\[C@H](C)[C@H](O)[C@@H](C)[C@@H](O)[C@@H](C)[C@H](OC(C)=O)[C@@H]1C
inhibition [1]: -6.18%
inhibition [2]: -3.13%

C[n+]1cccc(C(=O)[O-])c1
inhibition [1]: -1.47%
inhibition [2]: -5.02%

N[C@@H](Cn1oc(=O)[nH]c1=O)C(=O)O
inhibition [1]: 23.1%
inhibition [2]: 2.65%

CC1(C)CCC[C@](C)([C@H]2CC[C@]3(C)[C@@H]2[C@H](O)C[C@@H]2[C@@]4(C)CC[C@H](O)C(C)(C)[C@@H]4[C@@H](O)C[C@]23C)O1
inhibition [1]: 6.16%
inhibition [2]: 8.34%

O=c1c(O)c(-c2ccc(O)cc2)oc2cc(O)cc(O)c12
inhibition [1]: 20%
inhibition [2]: 5.23%
